Experiment: Precipitation after preparation of lenalidomide compositions without glycol or polyol
Format: physicochemical
Details: lenalidomide dissolved in an aqueous buffer at pH between 1.0 and 3.5; a few minutes
Method: A composition was prepared according to example 23 of WO 1998/03502. The solution contained 5.0 g lenalidomide, 22.5 g sodium chloride, 300.0 g phosphate buffer with pH 7.4 and demineralized water. The pH of the final composition was 7.4.
Similar results (i.e. precipitation) were obtained a few minutes after lenalidomide was dissolved in an aqueous buffer at pH between 1.0 and 3.5.
Likewise, attempts to prepare an oral solution by combining lenalidomide with any one of arginine, leucine, povidone K25, sodium lauryl sulfate, hydroxypropyl methylcellulose, poloxamer 20, in an aqueous buffer at pH 2.0 or pH 2.5 led to the formation of precipitate within minutes of the preparation of the compositions.

## Nc1cccc2c1CN(C1CCC(=O)NC1=O)C2=O (racemic) [Lenalidomide, 1-oxo-(2,6-dioxopiperidin-3-yl)-4-aminoisoindoline]
  precipitation after dissolution: precipitation
